Holding throughout (test): MIC by microdilution
What all share (assay type): cell-based
On the technique in general: Dilution methods test growth across graded concentrations, often in twofold steps.

The test system of test [1] is Salmonella enterica subsp. enterica serovar Typhimurium (ATCC 14028). The following applies: ATCC14028|TYPHIMURIUM, read-out: MIC, ST.
In test [2] the test system is P. aeruginosa (Schroeter) Migula (ATCC 27853). The following applies: Pseudomonas aeruginosa, ATCC27853, read-out: MIC, PA.
In test [3] the test system is E. coli (Migula) Castellani and Chalmers (ATCC 25922). The following applies: Escherichia coli, ATCC25922, read-out: MIC, EC.
For test [4], the system named is S. aureus subsp. aureus Rosenbach (ATCC 25923). The following applies: Staphylococcus aureus, ATCC25923, read-out: MIC, SA.

≈ marks a conversion by molar mass, not a printed value.

A word on the MIC: it is the lowest concentration that inhibits growth of the organism. On to `CNC(C)C1CCC(N)C(OC2C(N)CC(N)C(OC3OCC(C)(O)C(NC)C3O)C2O)O1` (stereo not shown) [gentamicin], for which the MIC in test [1] turned out to be 2 µg/mL (≈ 4.19 µM); in test [2], 4 µg/mL (≈ 8.38 µM); in test [3], 8 µg/mL (≈ 16.8 µM); in test [4], 4 µg/mL (≈ 8.38 µM).

The record behind these values is article PMC9386805 (ACS Omega, 2022).
